From ChEMBL document CHEMBL1201862, “PubChem BioAssay data set” (2004) come the findings set out here.

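These data come from cells grown in 96-well plates and exposed to compound for 48 hours at five concentrations. GI50 marks 50% less growth.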 The source made the active and inactive calls. Rule as the data show it: active = GI50 up to about 1.1 µM and inactive = higher.

Assay in all cases: NCI tumour cell line growth inhibition, 48 h
Assay [1] has as its system OVCAR-8.
In assay [2] the test system is BT-549.
Assay [3] has as its system CAKI-1.
For assay [4], the system named is NCI/ADR-RES.
The subject of assay [5] is SN12C.
Assay [6] relates to UACC-62.
For assay [7], the system named is SNB-19.
The test system of assay [8] is HOP-92.
For assay [9], the system named is NCI-H226.
Assay [10] deals with UO-31.
Assay [11] has as its system OVCAR-5.
Assay [12] deals with NCI-H522.
For assay [13], the system named is OVCAR-4.
In assay [14] the test system is HCC 2998.
For assay [15], the system named is HCT-15.
In assay [16] the test system is HCT-116.
In assay [17] the test system is U-251.
Assay [18] concerns UACC-257.
Assay [19] deals with SF-539.

With `COc1cccc(/N=N/C(=N/NC(=O)c2ccc(C)cc2)c2ccc(N(CCC#N)CCC#N)cc2OC)c1`, the GI50 in [1], in assay [2], in assay [3], in [4], in assay [5] and in assay [6] was > 100 µM (inactive) each time. Further, the GI50 was > 100 µM (inactive) in assay [7]; > 100 µM (inactive) in assay [8]; > 100 µM (inactive) in assay [9]; > 100 µM (inactive) in assay [10]; 24.4 µM (inactive) in [11]; > 100 µM (inactive) in assay [12]. Moreover, the GI50 in assay [13] is > 100 µM (inactive); in [14], 8.28 µM (inactive); in assay [15], over 100 µM; in [16], > 100 µM (inactive); in assay [17] it was > 100 µM (inactive); in assay [18] it was 7.14 µM (inactive).
Regarding `Nc1ccn(C2OC(C(OC3OC(CO)C(O)C(N)C3O)C(O)C(O)C(O)C(O)CO)C(N)C(O)C2O)c(=O)n1` (centres undefined), the GI50 in assay [1] was 81.5 µM (inactive); in [2], 31.3 µM (inactive); in [3] it was 61 µM (inactive); in assay [19], 11.3 µM (inactive); in assay [4] it was 49.1 µM (inactive); in assay [5] it was > 100 µM (inactive). For the same compound, the GI50 in assay [6] is 71 µM (inactive); in assay [7], 47.3 µM (inactive); in assay [8], 3.78 µM (inactive); in assay [10] it was 52 µM (inactive); in [11], 15 µM (inactive); in [12], 22.5 µM (inactive). The GI50 in assay [13] was 3.54 µM (inactive); in assay [14], 5.26 µM (inactive); in [15] it was 36.3 µM; in assay [16], 46.3 µM (inactive); in assay [17], > 100 µM (inactive); in assay [18] it was > 100 µM (inactive).
As to `COCCCN(Cc1cc(OC)c(OC)c(OC)c1)C(=S)Nc1cccc(Cl)c1`, the GI50 in assay [1] was 25 µM (inactive); in assay [2], 22.6 µM (inactive); in assay [3], 21.5 µM (inactive); in [19] it was 42.8 µM (inactive); in assay [4], 21.1 µM (inactive); in assay [5], 24.4 µM (inactive). Moreover, the GI50 in [6] is 15.4 µM (inactive); in assay [7] it was 43.7 µM (inactive); in [8], 20.2 µM (inactive); in assay [10], 26.1 µM (inactive); in assay [11], 20.8 µM (inactive); in [13], 24.4 µM (inactive). Besides, the GI50 in assay [14] is 39.1 µM (inactive); in assay [15], 16.7 µM; in [16], 17.2 µM (inactive); in assay [17], 31.8 µM (inactive); in assay [18] it was 19.6 µM (inactive).
With `Nc1c(Cl)cc(-c2nc3ccccc3s2)cc1Cl`, the GI50 in [1], in assay [2], in [19], in assay [4], in assay [5] and in assay [6] was > 100 µM (inactive) in each case. Besides, the GI50 in [7], in [8], in assay [9], in [10], in assay [12] and in assay [14] was > 100 µM (inactive) each time. Moreover, the GI50 in [15] was over 100 µM; in assay [16] it was > 100 µM (inactive); in assay [17], > 100 µM (inactive); in [18] it was > 100 µM (inactive).
`CCC(=O)Nc1ncnc2ncn(C(=O)CC)c12`: the GI50 in [1], in assay [2], in assay [3], in assay [4], in assay [5] and in assay [6] was > 100 µM (inactive) throughout. In addition, the GI50 in [7], in [8], in assay [10], in assay [11], in assay [12] and in [13] was > 100 µM (inactive) throughout. Further, the GI50 in [14] is > 100 µM (inactive); in assay [15], over 100 µM; in assay [16] it was > 100 µM (inactive); in [17], > 100 µM (inactive); in assay [18], > 100 µM (inactive).
For `O=C(O)C1OC1C(=O)O` (centres undefined), the GI50 in [1], in assay [2], in assay [3], in [4], in assay [5] and in [6] was > 100 µM (inactive) in each case. The GI50 in [7], in assay [8], in assay [9], in assay [10], in assay [11] and in assay [12] was > 100 µM (inactive) in each case. Moreover, the GI50 was > 100 µM (inactive) in assay [13]; > 100 µM (inactive) in assay [14]; over 100 µM in assay [15]; > 100 µM (inactive) in assay [16]; > 100 µM (inactive) in assay [17]; > 100 µM (inactive) in [18].
For the compound `C/C=C/C1OC(O)(C(C)C(O)[C@H](C)C2OC(=O)/C(OC)=C/C(C)=C/[C@@H](C)[C@@H](O)[C@@H](C)C(O)C(C)C/C(C)=C/C=C/C2OC)C[C@@H](OC2CC(O)C(OC(N)=O)C(C)O2)C1C` (some centres undefined), the GI50 in assay [1] is < 0.01 µM (active); in assay [2], < 0.01 µM (active); in assay [3] it was < 0.01 µM (active); in assay [19] it was < 0.01 µM (active); in assay [4], < 0.0127 µM (active); in assay [5] it was < 0.01 µM (active). Further, the GI50 in [6], in assay [7], in [8], in assay [9], in assay [10] and in assay [12] was < 0.01 µM (active) in each case. Also, the GI50 in assay [13] was 3.04 µM (inactive); in assay [14], < 0.01 µM (active); in assay [15], under 0.01 µM; in assay [16] it was < 0.01 µM (active); in assay [17], < 0.0167 µM (active); in assay [18], < 0.01 µM (active).
As for `O=C1CCCSCCCC(=O)CCCSCCC1`, the GI50 in [1], in [2], in [19], in assay [4], in assay [5] and in assay [6] was > 100 µM (inactive) each time. Further, the GI50 in assay [7], in assay [8], in assay [10], in assay [11], in assay [12] and in assay [13] was > 100 µM (inactive) each time. Moreover, the GI50 was > 100 µM (inactive) in [14]; over 100 µM in [15]; > 100 µM (inactive) in [16]; > 100 µM (inactive) in assay [17]; > 100 µM (inactive) in assay [18].
Consider `CC[C@H](C)C1=C(O)[N@+]2([O-])Oc3ccc(-c4c(O)c(O)c(-c5ccc(OC(C)=O)cc5)c(OC(C)=O)c4OC(C)=O)cc3O[C@]2([C@@H](C)CC)C(=O)N1O`, for which the GI50 in [1] is 24.5 µM (inactive); in assay [2] it was 32.7 µM (inactive); in [3] it was 34.4 µM (inactive); in assay [19], 13.1 µM (inactive); in assay [4], 12.9 µM (inactive); in [5], 17.2 µM (inactive). Also, the GI50 is 15 µM (inactive) in assay [6]; 45.3 µM (inactive) in assay [7]; 11.6 µM (inactive) in assay [8]; > 50 µM (inactive) in [10]; 47.1 µM (inactive) in [11]; 8.43 µM (inactive) in assay [12]. The GI50 is 8.79 µM (inactive) in [13]; 11.7 µM (inactive) in assay [14]; 19.7 µM in assay [15]; 9.86 µM (inactive) in [16]; 18.6 µM (inactive) in [17]; > 50 µM (inactive) in assay [18].
Consider `COc1ccc2c(c1)CCC1=CC3(CCC12C)SCCS3` (centres undefined), for which the GI50 was > 10 µM (inactive) in assay [1]; > 10 µM (inactive) in assay [2]; 7.52 µM (inactive) in [3]; 3.56 µM (inactive) in assay [4]; 9.25 µM (inactive) in [5]; 4.14 µM (inactive) in assay [6]. Besides, the GI50 in assay [7] was > 10 µM (inactive); in assay [8] it was 4.97 µM (inactive); in assay [12] it was 2.99 µM (inactive); in assay [13] it was > 10 µM (inactive); in [14], 7.8 µM (inactive); in assay [15] it was 6.38 µM. The GI50 in [17] is 9.73 µM (inactive); in [18] it was > 10 µM (inactive).
With `c1ccc(C(C2=Nc3cccc4cccc(c34)N2)c2ccccc2)cc1`, the GI50 is 30.7 µM (inactive) in assay [1]; 22 µM (inactive) in assay [2]; 22.6 µM (inactive) in [3]; 17.2 µM (inactive) in assay [19]; 21.2 µM (inactive) in assay [4]; 14.8 µM (inactive) in assay [5]. In addition, the GI50 in assay [6] is 17.5 µM (inactive); in [7] it was 37.8 µM (inactive); in assay [8], 18.7 µM (inactive); in [9] it was 31.6 µM (inactive); in [10], 17.8 µM (inactive); in [12] it was 16.6 µM (inactive). Moreover, the GI50 is 53.5 µM (inactive) in assay [13]; 20.6 µM (inactive) in assay [14]; 25.1 µM in [15]; > 10 µM (inactive) in [16]; 18 µM (inactive) in assay [17]; 24.5 µM (inactive) in assay [18].
